Assay results as given in patent publication US12492183B2, “Tetrahydroquinazoline derivatives as selective cytotoxic agents” (Merck Sharp & Dohme LLC, priority 2020, dated 2025).
pEC50: −log10 of the molar value.

Tested on: PBMCs infected with VSV-G pseudotyped HIV virus (VSV-G/pNLG1-P2A-ΔEnv)
Assay: cells
Type: cell-based
Settings: Homo sapiens, PBMC, read-out: TACK EC50

Row | Structure (SMILES) | pEC50
1 | Nc1nc(Cc2cc3c(cc2F)[C@@](C#CC2CC2)(C(F)(F)F)NC(=O)N3)cnc1CO [Example 46, (S)-7-((6-amino-5-(hydroxymethyl)pyrazin-2-yl)methyl)-4-(cyclopropylethynyl)-6-fluoro-4-(trifluoromethyl)-3,4-dihydroquinazolin-2(1H)-one] | 6.97
2 | Cc1cc2c(cc1Cc1ccnc(N)n1)NC(=O)N[C@]2(C#CC1CC1)C(F)(F)F [Example 33, (S)-7-((2-aminopyrimidin-4-yl)methyl)-4-(cyclopropyl-ethynyl)-6-methyl-4-(trifluoro-methyl)-3,4-dihydroquinazo-lin-2(1H)-one] | 6.74
3 | NC(=O)c1c(Cc2ccc3c(c2)NC(=O)N[C@]3(C#CC2CC2)C(F)(F)F)ccnc1N [Example 55] | 6.72
4 | N#Cc1cc(Cc2cc3c(cc2F)[C@@](C#CC2CC2)(C(F)(F)F)NC(=O)N3)[n+]([O-])cc1OCCO [Example 43, (S)-4-cyano-2-((4-(cyclopropylethynyl)-6-fluoro-2-oxo-4-(trifluoromethyl)-1,2,3,4-tetrahydroquinazolin-7-yl)methyl)-5-(2-hydroxyethoxy)pyridine 1-oxide] | 6.78
5 | Cc1nc(C)c(Cc2ccc3c(c2)NC(=O)N(C(C)C)[C@]3(C#CC2CC2)C(F)(F)F)c(=O)[nH]1 [Example 23, (S)-4-(cyclopropylethynyl)-7-((2,4-dimethyl-6-oxo-1,6-dihydropyrimidin-5-l)meth-yl)-3-isopropyl-4-(trifluoro-methyl)-3,4-dihydroquin-azolin-2(1H)-one] | 6.82
6 | Nc1ncc(F)c(Cc2ccc3c(c2)NC(=O)N[C@]3(C#CC2CC2)C(F)(F)F)n1 [Example 15, (S)-7-((2-amino-5-fluoropyrimi-din-4-yl)methyl)-4-(cycloprop-ylethynyl)-4-(trifluoromethyl)-3,4-dihydroquinazolin-2(1H)-one] | 7.67
